Reference: ChEMBL document CHEMBL4613208, “Isatin derivatives and their anti-bacterial activities” (Eur J Med Chem, 2019)
pIC50: −log10 of the molar value. Converted amounts (≈) assume the structure as drawn.

Experiments:
Pseudomonas aeruginosa [1] = assay: Antibacterial activity against Pseudomonas aeruginosa; format: functional, organism-based
Salmonella typhi = assay: Antibacterial activity against Salmonella typhi; format: functional, Salmonella enterica subsp. enterica serovar Typhi; conditions: Salmonella enterica
Pseudomonas aeruginosa [2] = assay: Antibacterial activity against Pseudomonas aeruginosa after 24 hrs by paper disc diffusion technique; format: functional
Micrococcus luteus = assay: Antibacterial activity against Micrococcus luteus after 24 hrs by paper disc diffusion technique; format: functional
Klebsiella pneumoniae = assay: Antibacterial activity against Klebsiella pneumoniae after 24 hrs by paper disc diffusion technique; format: functional
Escherichia coli [3] = assay: Antibacterial activity against Escherichia coli after 24 hrs by paper disc diffusion technique; format: functional
Staphylococcus aureus [4] = assay: Antibacterial activity against Staphylococcus aureus after 24 hrs by paper disc diffusion technique; format: functional
[5] = test system: Staphylococcus epidermidis; assay: Antibacterial activity against Staphylococcus epidermidis after 24 hrs by paper disc diffusion technique; format: functional
Escherichia coli [6] = assay: Antibacterial activity against Escherichia coli; format: functional, organism-based
Staphylococcus aureus [7] = assay: Antibacterial activity against Staphylococcus aureus; format: functional, organism-based
Bacillus cereus = assay: Antibacterial activity against Bacillus cereus assessed as zone of inhibition at 100 ug/ml; format: functional; conditions: read-out: IZ
Escherichia coli [8] = assay: Antibacterial activity against Escherichia coli assessed as zone of inhibition at 100 ug/ml; format: functional; conditions: read-out: IZ
Staphylococcus aureus [9] = assay: Antibacterial activity against Staphylococcus aureus assessed as zone of inhibition at 100 ug/ml; format: functional; conditions: read-out: IZ
Pseudomonas aeruginosa [10] = assay: Antibacterial activity against Pseudomonas aeruginosa assessed as zone of inhibition at 100 ug/ml; format: functional; conditions: read-out: IZ
[11] = Pseudomonas aeruginosa, 24 h, read-out: MIC
[12] = Micrococcus luteus, 24 h, read-out: MIC
[13] = Klebsiella pneumoniae, 24 h, read-out: MIC
[14] = Escherichia coli, 24 h, read-out: MIC
[15] = Staphylococcus aureus, 24 h, read-out: MIC
[16] = Staphylococcus epidermidis, 24 h, read-out: MIC

SMILES | MIC (Pseudomonas aeruginosa [1]) | MIC (Salmonella typhi) [µM] | MIC (Pseudomonas aeruginosa [2]; [11]) [µg/mL] | MIC (Micrococcus luteus; [12]) [µg/mL] | MIC (Klebsiella pneumoniae; [13]) [µg/mL] | MIC (Escherichia coli [3]; [14]) [µg/mL] | MIC (Staphylococcus aureus [4]; [15]) [µg/mL] | MIC [5, 16] [µg/mL] | other results
Cc1ccc(C)c(NC(=O)CN2C(=O)/C(=N\c3ccccc3)c3ccccc32)c1 | 0.003 to 0.324 µM | 0.003 to 0.324 (≈ 0.00115 to 0.124 µg/mL) | – | – | – | – | – | – | –
COc1cc(/C=N/c2ccc(/N=C3/C(=O)N(CN4CCN(c5cc6c(cc5F)c(=O)c(C(=O)O)cn6C5CC5)CC4)c4ccc(F)cc43)cc2)ccc1O | – | – | 7.81 to 125 (≈ 10.7 to 171 µM) | 7.81 to 125 (≈ 10.7 to 171 µM) | 7.81 to 125 (≈ 10.7 to 171 µM) | 7.81 to 125 (≈ 10.7 to 171 µM) | 7.81 to 125 (≈ 10.7 to 171 µM) | 7.81 to 125 (≈ 10.7 to 171 µM) | –
Cc1ccc(C)c(/N=C2\C(=O)N(CC(=O)Nc3ccccc3C)c3ccccc32)c1 | 0.003 to 0.324 µM | 0.003 to 0.324 (≈ 0.00119 to 0.129 µg/mL) | – | – | – | – | – | – | –
O=C1Nc2ccccc2/C1=N/NC(=O)c1cccc(Br)c1 | – | – | – | – | – | – | – | – | pIC50 (Pseudomonas aeruginosa [1]): 4.30 to 4.52; pIC50 (Escherichia coli [6]): 4.30 to 4.52; pIC50 (Staphylococcus aureus [7]): 4.30 to 4.52
O=C(CN1C(=O)/C(=N\c2ccccc2)c2ccccc21)Nc1ccccc1 | 0.003 to 0.324 µM | 0.003 to 0.324 (≈ 0.00107 to 0.115 µg/mL) | – | – | – | – | – | – | –
CN(C)c1ccc(/C=N/c2ccc(/N=C3/C(=O)N(CN4CCN(c5cc6c(cc5F)c(=O)c(C(=O)O)cn6C5CC5)CC4)c4ccc(F)cc43)cc2)cc1 | – | – | 7.81 to 125 (≈ 10.7 to 171 µM) | 7.81 to 125 (≈ 10.7 to 171 µM) | 7.81 to 125 (≈ 10.7 to 171 µM) | 7.81 to 125 (≈ 10.7 to 171 µM) | 7.81 to 125 (≈ 10.7 to 171 µM) | 7.81 to 125 (≈ 10.7 to 171 µM) | –
O=C(O)c1cn(C2CC2)c2cc(N3CCN(CN4C(=O)/C(=N/c5ccc(/N=C/c6ccc(O)cc6)cc5)c5cc(F)ccc54)CC3)c(F)cc2c1=O | – | – | 7.81 to 125 (≈ 11.1 to 178 µM) | 7.81 to 125 (≈ 11.1 to 178 µM) | 7.81 to 125 (≈ 11.1 to 178 µM) | 7.81 to 125 (≈ 11.1 to 178 µM) | 7.81 to 125 (≈ 11.1 to 178 µM) | 7.81 to 125 (≈ 11.1 to 178 µM) | MIC (Pseudomonas aeruginosa [2]): 7.81 to 15.62 µg/mL; MIC (Micrococcus luteus): 7.81 to 15.62 µg/mL; MIC (Klebsiella pneumoniae): 7.81 to 15.62 µg/mL; MIC (Escherichia coli [3]): 7.81 to 15.62 µg/mL; MIC (Staphylococcus aureus [4]): 7.81 to 15.62 µg/mL; MIC [5]: 7.81 to 15.62 µg/mL
COc1ccc(NC(=O)CN2C(=O)/C(=N\c3ccccc3)c3ccccc32)cc1 | 0.003 to 0.324 µM | 0.003 to 0.324 (≈ 0.00116 to 0.125 µg/mL) | – | – | – | – | – | – | –
COc1ccc(NC(=O)CN2C(=O)/C(=N\c3cc(C)ccc3C)c3ccccc32)cc1 | 0.003 to 0.324 µM | 0.003 to 0.324 (≈ 0.00124 to 0.134 µg/mL) | – | – | – | – | – | – | –
Cc1ccccc1NC(=O)CN1C(=O)/C(=N\c2ccccc2)c2ccccc21 | 0.003 to 0.324 µM | 0.003 to 0.324 (≈ 0.00111 to 0.12 µg/mL) | – | – | – | – | – | – | –
Cc1c(C)c2c(c(C)c1O)CCC(C)(C(=O)N/N=C1\C(=O)Nc3ccc(Cl)cc31)O2 (configuration not stated) | 12.5 to 100 µg/mL | – | – | – | – | – | – | – | MIC (Escherichia coli [6]): 12.5 to 100 µg/mL (≈ 29.2 to 234 µM); MIC (Staphylococcus aureus [7]): 12.5 to 100 µg/mL (≈ 29.2 to 234 µM)
O=C(O)c1cn(C2CC2)c2cc(N3CCN(CN4C(=O)/C(=N/c5ccc(/N=C/c6ccc(Cl)cc6)cc5)c5cc(F)ccc54)CC3)c(F)cc2c1=O | – | – | 7.81 to 125 (≈ 10.8 to 173 µM) | 7.81 to 125 (≈ 10.8 to 173 µM) | 7.81 to 125 (≈ 10.8 to 173 µM) | 7.81 to 125 (≈ 10.8 to 173 µM) | 7.81 to 125 (≈ 10.8 to 173 µM) | 7.81 to 125 (≈ 10.8 to 173 µM) | –
COc1ccc(/C=N/c2ccc(/N=C3/C(=O)N(CN4CCN(c5cc6c(cc5F)c(=O)c(C(=O)O)cn6C5CC5)CC4)c4ccc(F)cc43)cc2)cc1 | – | – | 7.81 to 125 (≈ 10.9 to 174 µM) | 7.81 to 125 (≈ 10.9 to 174 µM) | 7.81 to 125 (≈ 10.9 to 174 µM) | 7.81 to 125 (≈ 10.9 to 174 µM) | 7.81 to 125 (≈ 10.9 to 174 µM) | 7.81 to 125 (≈ 10.9 to 174 µM) | –
COc1cccc(NC(=O)CN2C(=O)/C(=N\c3ccccc3)c3ccccc32)c1 | 0.003 to 0.324 µM | 0.003 to 0.324 (≈ 0.00116 to 0.125 µg/mL) | – | – | – | – | – | – | –
Cc1ccc(NC(=O)CN2C(=O)/C(=N\c3cc(C)ccc3C)c3ccccc32)cc1 | 0.003 to 0.324 µM | 0.003 to 0.324 (≈ 0.00119 to 0.129 µg/mL) | – | – | – | – | – | – | –
Cc1ccc(C)c(/N=C2\C(=O)N(CC(=O)Nc3cc(C)ccc3C)c3ccccc32)c1 | 0.003 to 0.324 µM | 0.003 to 0.324 (≈ 0.00123 to 0.133 µg/mL) | – | – | – | – | – | – | –
COc1cc(/C=N/c2ccc(/N=C3/C(=O)N(CN4CCN(c5cc6c(cc5F)c(=O)c(C(=O)O)cn6C5CC5)CC4)c4ccc(F)cc43)cc2)cc(OC)c1OC | – | – | 7.81 to 125 (≈ 10.1 to 161 µM) | 7.81 to 125 (≈ 10.1 to 161 µM) | 7.81 to 125 (≈ 10.1 to 161 µM) | 7.81 to 125 (≈ 10.1 to 161 µM) | 7.81 to 125 (≈ 10.1 to 161 µM) | 7.81 to 125 (≈ 10.1 to 161 µM) | –
Cc1ccc(/C=N/c2ccc(/N=C3/C(=O)N(CN4CCN(c5cc6c(cc5F)c(=O)c(C(=O)O)cn6C5CC5)CC4)c4ccc(F)cc43)cc2)cc1 | – | – | 7.81 to 125 (≈ 11.1 to 178 µM) | 7.81 to 125 (≈ 11.1 to 178 µM) | 7.81 to 125 (≈ 11.1 to 178 µM) | 7.81 to 125 (≈ 11.1 to 178 µM) | 7.81 to 125 (≈ 11.1 to 178 µM) | 7.81 to 125 (≈ 11.1 to 178 µM) | –
Cc1ccc(NC(=O)CN2C(=O)/C(=N\c3ccccc3)c3ccccc32)c(C)c1 | 0.003 to 0.324 µM | 0.003 to 0.324 (≈ 0.00115 to 0.124 µg/mL) | – | – | – | – | – | – | –
Cc1ccc(C2C(Cl)C(=O)N2c2ccc(OCC(=O)N/N=C3\C(=O)N(CN4CCCCC4)c4ccccc43)c3ncccc23)cc1 (configuration not stated) | – | – | – | – | – | – | – | – | zone of inhibition at 100 µg/mL (Bacillus cereus): 6 to 19 mm; zone of inhibition at 100 µg/mL (Escherichia coli [8]): 6 to 19 mm; zone of inhibition at 100 µg/mL (Staphylococcus aureus [9]): 6 to 19 mm; zone of inhibition at 100 µg/mL (Pseudomonas aeruginosa [10]): 6 to 19 mm
Cc1c(C)c2c(c(C)c1O)CCC(C)(C(=O)N/N=C1\C(=O)N(C)c3ccccc31)O2 (configuration not stated) | 12.5 to 100 µg/mL | – | – | – | – | – | – | – | MIC (Escherichia coli [6]): 12.5 to 100 µg/mL (≈ 30.7 to 245 µM); MIC (Staphylococcus aureus [7]): 12.5 to 100 µg/mL (≈ 30.7 to 245 µM)
Cc1c(C)c2c(c(C)c1O)CCC(C)(C(=O)N/N=C1\C(=O)Nc3ccc(F)cc31)O2 (configuration not stated) | 12.5 to 100 µg/mL | – | – | – | – | – | – | – | MIC (Escherichia coli [6]): 12.5 to 100 µg/mL (≈ 30.4 to 243 µM); MIC (Staphylococcus aureus [7]): 12.5 to 100 µg/mL (≈ 30.4 to 243 µM)
Cc1c(C)c2c(c(C)c1O)CCC(C)(C(=O)N/N=C1\C(=O)N(C)c3ccc(Cl)cc31)O2 (configuration not stated) | 12.5 to 100 µg/mL | – | – | – | – | – | – | – | MIC (Escherichia coli [6]): 12.5 to 100 µg/mL (≈ 28.3 to 226 µM); MIC (Staphylococcus aureus [7]): 12.5 to 100 µg/mL (≈ 28.3 to 226 µM)
